Test [1] has as its target T1, glutathione-S-transferase (GST) tagged LXRbeta LBD (ligand binding domain) (Homo sapiens, UniProt P55055).
T1 construct: purchased Invitrogen pv4658.pps
T1 sequence (P55055 222-460 limits assumed): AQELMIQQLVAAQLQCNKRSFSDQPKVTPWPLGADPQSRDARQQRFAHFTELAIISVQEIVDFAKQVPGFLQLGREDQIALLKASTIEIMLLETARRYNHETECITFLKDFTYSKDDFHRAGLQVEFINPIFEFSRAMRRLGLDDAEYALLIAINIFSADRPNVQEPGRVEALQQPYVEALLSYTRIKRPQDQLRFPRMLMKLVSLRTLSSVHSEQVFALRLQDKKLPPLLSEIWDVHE
Description: LanthaScreen TR-FRET Liver X Receptor Coactivator Assay, co-activator recruitment to LXRbeta LBD. The format is biochemical. The note with it: for pEC50: co-activator recruitment to GST-LXRbeta LBD, TR-FRET, read-out: LXR beta IP (Inflection Point, potency); for Emax: read-out: LXR beta Activity @ max dose. A digest of the protocol: (§1)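 TR-FRET coactivator recruitment; compound + LBD, then fluorescein-coactivator peptide/Tb-anti-GST Ab mix; RT incubation; IP and Emax vs T0901317.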

Test [2] addresses T2, glutathione-S-transferase (GST) tagged LXRalpha LBD (ligand binding domain) (Homo sapiens, UniProt Q13133).
T2 construct: purchased Invitrogen pv4655
T2 sequence (Q13133 209-447 limits assumed): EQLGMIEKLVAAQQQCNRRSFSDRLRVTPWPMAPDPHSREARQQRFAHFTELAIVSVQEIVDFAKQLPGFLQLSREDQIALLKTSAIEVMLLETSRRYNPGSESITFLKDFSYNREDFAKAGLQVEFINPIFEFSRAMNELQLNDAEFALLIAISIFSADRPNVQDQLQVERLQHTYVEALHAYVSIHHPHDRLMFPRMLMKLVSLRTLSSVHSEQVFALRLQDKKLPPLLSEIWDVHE
The test is described as follows: LanthaScreen TR-FRET Liver X Receptor Coactivator Assay, co-activator recruitment to LXRalpha LBD. The format is biochemical. The conditions noted are these: for LXR alpha IP (Inflection Point, potency) / pEC50: co-activator recruitment to GST-LXRalpha LBD, TR-FRET; for Emax: read-out: LXR alpha Activity @ max dose; for pEC50: read-out: LXR alpha IP (Inflection Point, potency). A digest of the protocol:
as §1

[3] abbreviates: efficacy in relation to reference dual agonist T0901317.

Each structure is given as a SMILES string. pEC50: −log10 of the molar value. Where two headings read alike, the source gives them in different places.

For the compound `CN(C)C(=O)c1ccc(N2CCC(CC3CCN(S(=O)(=O)c4cccc(OC(F)F)c4)CC3)CC2)cc1Cl` [Example 13-10, 2-chloro-4-{4[(1-{[3-(difluoromethoxy)-phenyl]sulfonyl}-piperidin-4-yl)methyl]-piperidin-1-yl}-N,N-dimethylbenzamide], in test [1], the pEC50 is 6.98. Further, the Emax was determined as 52% in test [1] (setting [3]) and 5% in test [2] (setting [3]). Besides, in test [2], the “LXR alpha IP (Inflection Point, potency)” value was “NO IP”.

In the case of `COc1cccc(S(=O)(=O)N2CCC(CC3CCN(c4ccc(C(=O)N(C)C)c(Cl)c4)CC3)CC2)c1` [Example 13-11, 2-chloro-4-[4({1-[(3-methoxyphenyl)-sulfonyl]piperidin-4-yl}methyl)piperidin-1-yl]-N,N-dimethyl-benzamide], the pEC50 is 7.01 in test [1] and 6.13 in test [2]. Moreover, the Emax turned out to be 64% in test [1] (setting [3]) and 23% in test [2] (setting [3]).

As to `CN(C)C(=O)c1ccc(N2CCC(CC3CCN(S(=O)(=O)c4cccc(Br)c4)CC3)CC2)cc1Cl` [Example 13-12, 4-[4-({1-[(3-bromo-phenyl)sulfonyl]-piperidin-4-yl}methyl)-piperidin-1-yl]-2-chloro-N,N-dimethyl-benzamide], the pEC50 in test [1] was 7.08. Also, the Emax in test [1] (setting [3]) was 54%; in test [2] (setting [3]), 16%. In test [2], the “LXR alpha IP (Inflection Point, potency)” value is given as “NO IP”.

On to `CN(C)C(=O)c1ccc(N2CCC(CC3CCN(S(=O)(=O)c4cccc(Cl)c4)CC3)CC2)cc1Cl` [Example 13-13, 2-chloro-4-[4-({1-[(3-chlorophenyl)sulfonyl]-piperidin-4-yl}methyl)-piperidin-1-yl]-N,N-dimethylbenzamide], for which the pEC50 in test [1] was 7.13. For the same compound, the Emax in test [1] (setting [3]) turned out to be 49%; in test [2] (setting [3]) it was 15%. In test [2], the “LXR alpha IP (Inflection Point, potency)” value is “NO IP”.

Turning to `CN(C)C(=O)c1ccc(N2CCC(CC3CCN(S(=O)(=O)c4ccc(F)cc4)CC3)CC2)cc1Cl` [Example 13-14, 2-chloro-4-[4-({1-[(4-fluorophenyl)sulfonyl]-piperidin-4-yl}methyl)-piperidin-1-yl]-N,N-dimethylbenzamide], the pEC50 in test [1] was 6.30; in test [2], 5.56. For the same compound, the Emax in test [1] (setting [3]) came to 58%; in test [2] (setting [3]), 24%.

With `CN(C)C(=O)c1ccc(N2CCC(CC3CCN(S(=O)(=O)c4cc(F)cc(C(F)(F)F)c4)CC3)CC2)cc1Cl` [Example 13-15, 2-chloro-4-{4-[(1-{[3-fluoro-5-(trifluoro-methyl)phenyl]-sulfonyl}piperidin-4-yl)methyl]piperidin-1-yl}-N,N-dimethylbenzamide], the pEC50 in test [1] is 6.77. The Emax in test [1] (setting [3]) is 32%; in test [2] (setting [3]), 0%. In addition, in test [2], the “LXR alpha IP (Inflection Point, potency)” value is recorded as “NO IP”.

As for `CN(C)C(=O)c1ccc(N2CCC(CC3CCN(S(=O)(=O)c4cccc(OC(F)(F)F)c4)CC3)CC2)cc1Cl` [Example 13-16], in test [1], the pEC50 was 6.87. Also, the Emax was 35% in test [1] (setting [3]) and 0% in test [2] (setting [3]). Moreover, the “LXR alpha IP (Inflection Point, potency)” value in test [2] was “NO IP”.

For the compound `CN(C)C(=O)c1ccc(N2CCC(CC3CN(S(=O)(=O)c4ccccc4)C3)CC2)nc1Cl` [Example 14-1, 2-chloro-N,N-dimethyl-6-(4-((1-(phenylsulfonyl)azetidin-3-yl)methyl)piperidin-1-yl)nicotinamide], in test [1], the pEC50 was 7.36 and the Emax was 111%. Further, in test [2], the pEC50 was 5.46 and the Emax is 55%.

Consider `COc1cccc(S(=O)(=O)N2CC(CC3CCN(c4ccc(C(=O)N(C)C)c(Cl)n4)CC3)C2)c1` [Example 14-2, 2-chloro-6-[4-({1-[(3-methoxyphenyl)-sulfonyl]azetidin-3-yl}methyl)piperidin-1-yl}-N,N-dimethyl-pyridine-3-carboxamide], for which the figures for the pEC50 in test [1] and in test [2] were 7.30 and 4.99, respectively. Besides, the Emax was determined as 93% in test [1] (setting [3]) and 45% in test [2] (setting [3]).

In the case of `COc1cccc(CS(=O)(=O)N2CC(CC3CCN(c4ccc(C(=O)N(C)C)c(Cl)n4)CC3)C2)c1` [Example 14-3, 2-chloro-6-[4({1-[(3-methoxybenzyl)-sulfonyl]azetidin-3-yl}methyl)piperidin-1-yl]-N,N-dimethyl-pyridine-3-carboxamide], in test [1], the pEC50 was 5.82. The Emax in test [1] (setting [3]) was found to be 48%; in test [2] (setting [3]) it was 5%. In addition, in test [2], the “LXR alpha IP (Inflection Point, potency)” value is given as “NO IP”.

Values taken from patent US10752587B2, “Homobispiperidinyl derivatives as liver X receptor beta agonists, compositions and their use” (Merck Sharp & Dohme Corp., priority 2015, dated 2020).
